# From patent US7073512B2, “Adhesion prevention and an endoscopic insufflation system therefor” (Saturnus AG, priority 1997, dated 2006)
# Test system: adhesion formation
# Experiment: Adhesion formation after CO2 laser injury under CO2 or CO2/O2 pneumoperitoneum, scored at second-look laparoscopy after one week
# Format: in vivo, New Zealand white rabbits
# Parameters: key to Mean total adhesion score: sum of extent (0-4), type (0-3), tenacity (0-3), inflammation (0-3)
# Method: All animals received two standard CO2 laser injuries. A non opposing lesion was inflicted in the retro-uterine space, i.e. on the posterior utero-vaginal wall, consisting of a 2 cm^2; vaporization of the superficial layers with CO2 laser. In addition, an apposing lesion was performed in the oviduct and pelvic side wall, consisting of a 2 cm^2 vaporization, on both sides. The time required to induce the lesions varied from 3 to 7 minutes.
# Animals were assigned randomly on a daily base, to one of the following seven experimental groups. First and second groups were considered control groups. In group 1, using conventional CO2 pneumoperitoneum, the total duration of the procedure was restricted to 10 minutes.
# Adhesions were evaluated by laparoscopy after one week. All second look laparoscopies were videotaped, and subsequently scored blindly by two investigators, taking into account extent (0 to 4 points), type (0 to 3 points), tenacity (0 to 3 points) and inflammatory reaction (0 to 3 points) at the injury and at de-novo siteds.
# Sixty five New Zealand white rabbits weighing between 2150 and 3000 grams were operated with a standard 3 puncture laparoscopy. Standard surgical injuries were inflicted with CO2 laser (Sharplan 1060: Sharplan, Tel Aviv, Israel) with a spot diameter of 1 mm and a power setting of 10 watts in the continuous superpulse mode. […] The output of both insufflators was mixed in a mixing chamber, humidified and warmed. The insufflation pressure was 10 cm of water and the intra-abdominal flow rate 20 l/min. It is obvious that all means in contact with O2 are adapted therefor.
Compound,"P of difference in total adhesion score versus control group with 100% CO2 (Group 2, 60′ CO2) (10′ CO2 (group 1))","Mean total adhesion score (group 1: pure CO2 pneumoperitoneum, procedure restricted to 10 minutes)",Mean total adhesion score (group 2: pure CO2 pneumoperitoneum maintained 70 minutes),"Increase of adhesion scores, 60 min exposure in comparison with 10 min exposure (pure CO2, 60 min vs 10 min)","P of difference in total adhesion score versus control group with 100% CO2 (Group 2, 60′ CO2) (60′ 2.5% O2 (group 4))","P of difference in total adhesion score versus control group with 100% CO2 (Group 2, 60′ CO2) (60′ 5% O2 (group 5))","P of difference in total adhesion score versus control group with 100% CO2 (Group 2, 60′ CO2) (60′ 10% O2 (group 6))","P of difference in total adhesion score versus control group with 100% CO2 (Group 2, 60′ CO2) (60′ 20% O2 (group 7))",P of decrease in total adhesion score with the addition of O2 (de novo adhesions around the opposite tube),"Adhesiogenic effect of CO2 (from a final concentration of 5% oxygen onwards, together with CO2)","Mean total adhesion score (group 3: CO2 with 1% O2, pneumoperitoneum 70 minutes)","Mean total adhesion score (group 5: CO2 with 5% O2, pneumoperitoneum 70 minutes)","Mean total adhesion score (group 6: CO2 with 10% O2, pneumoperitoneum 70 minutes)","Mean total adhesion score (group 7: CO2 with 20% O2, pneumoperitoneum 70 minutes)",Amount of adhesions (increasing concentrations of oxygen in CO2 pneumoperitoneum),P of decrease in total adhesion score with the addition of O2 (non opposing lesion in the pouch of Douglas),P of decrease in total adhesion score with the addition of O2 (opposing lesion in tube/side wall)
"O=C=O [CO2, carbon dioxide, reference compound]",P = 0.0002,4.5±3.7,17.5±6.7,4 fold,,,,,,,,,,,,,
"O=O [O2, oxygen]",,,,,P = 0.05,P = 0.0005,P = 0.007,P = 0.005,0.0001,completely abolished,15.8±5.2,5.3±3.8,6.6±4.4,6.3±2.5,decreased progressively,0.0002,0.0014
